Patent US6346535B1, “Fungicidal mixtures” (American Cyanamid Company, priority 1999, dated 2002)
Read-outs that look alike come from different tables or passages of the source.

What was measured:
Format in all cases: in vivo
[1] = system: Erysiphe cichoracearum on cucumbers; test: Greenhouse trial, 4 day residual, Erysiphe cichoracearum on cucumbers; details: for pest or weed control at 0.4 ppm / pest or weed control at 10 ppm / pest or weed control at 2 ppm / pest or weed control at 50 ppm / pest or weed control at 4 ppm / pest or weed control at 16 ppm / pest or weed control at 64 ppm / pest or weed control at 256 ppm: Golovinomyces cichoracearum, 96 h, read-out: Observed Efficacy; for pest or weed control at 4 ppm / pest or weed control at 16 ppm / pest or weed control at 64 ppm / pest or weed control at 256 ppm: Table VI; for pest or weed control at 4 ppm: dose rate 4 ppm; for pest or weed control at 16 ppm: dose rate 16 ppm; for pest or weed control at 64 ppm: dose rate 64 ppm; for pest or weed control at 256 ppm: dose rate 256 ppm
Text: (§1) The fungicides are applied in single treatments, or in a combination comprising a benzophenone of formula I and a compound selected from (A) through (E) as defined above. The compounds are applied in form of an aqueous spray mix obtained from a concentrated formulation or the technical material.
(§2) 1. Seed is planted in 6 cm diameter plastic pots and maintained in the greenhouse.
(§3) 2. When the primary leaf is fully expanded (in the case of cereals) or several leaves are present (in the case of dicots), formulated test compounds are sprayed with a three nozzle overhead fungicide sprayer to near run-off. Alternatively, a single nozzle overhead track sprayer is used for application of the compounds to cereals at a rate of 200 liters/ha (l/ha). Plants are then allowed to air-dry.
(§4) 3. Inoculation precedes treatment in the case of curative evaluations and follows treatment in case of residual evaluations. For inoculation of powdery mildew disease, plants are set up on greenhouse benches with bottom watering mats and inoculated by dusting them with conidia from infected plants. Between inoculation and treatment for curative evaluations and between treatment and inoculation for residual evaluations, plants are maintained in the greenhouse with bottom watering. For inoculation of non-powdery mildew diseases, an aqueous spore suspension of the pathogen is applied to the plant and the plants are kept 1-2 days in a moist infection chamber before being returned to the greenhouse where they are maintained by bottom watering.
(§5) 4. Disease on the foliage as percent leaf area with disease symptoms/signs is evaluated about 7 days after inoculation. In the case of wheat, the tips and bases of the leaves are excluded from the evaluation. [formula]
(§6) 1. Technical compounds are formulated in a solvent/surfactant system consisting of 5% acetone and 0.05% Tween 20 in deionized water. Compounds are dissolved in acetone prior to addition of the water; the Tween 20 can be added through either the acetone or the water. Dilutions are made using the solvent/surfactant system. Formulated compounds are prepared using deionized water.
(§7) Assessments of the diseases took place at the indicated day after the application of the compounds. Per cent infected leaf area infected was evaluated. The efficacy of the compounds/compounds mixtures to control the diseases was calculated by using the formula given above under item 4: […]
(§8) Synergy of a fungicide mixture was determined by comparing the actual (observed) fungicidal activity of the mixture to the expected fungicidal activity of the mixture as calculated using the COLBY formula given hereinabove.

[2] = system: Puccinia recondita on wheat; test: Greenhouse trial, 4 day residual, Puccinia recondita on wheat; details: for pest or weed control at 64 ppm: dose rate 64 ppm; for pest or weed control at 256 ppm: dose rate 256 ppm
Text: as §1, §2, §3, §4, §5, §6, §7, §8
Fungicidal Efficacy of the Mixture of BP-4+Other Fungicides (4 Day Residual) Against Puccinia recondita on Wheat
Fungicidal Efficacy of the Mixture of BP-4+Myclobutanil (4 Day Residual) Against Puccinia recondita on Wheat

[3] = system: Pyrenophora teres on barley; test: Greenhouse trial, 4 day residual, Pyrenophora teres on barley; details: for pest or weed control at 2 ppm / pest or weed control at 10 ppm / pest or weed control at 0.4 ppm / pest or weed control at 50 ppm: Pyrenophora teres, 96 h, read-out: Observed Efficacy
Text: as §1, §2, §3, §4, §5, §6, §7, §8
Fungicidal Efficacy of the Mixture of BP-4+Other Fungicides (4 Day Residual) Against Pyrenophora teres on Barley

[4] = system: Leptosphaeria nodorum on wheat; test: Greenhouse trial, 4 day residual, Leptosphaeria nodorum on wheat; details: Parastagonospora nodorum, 96 h, Table VIII, compound alone, read-out: Observed Efficacy; for pest or weed control at 64 ppm: dose rate 64 ppm; for pest or weed control at 256 ppm: dose rate 256 ppm
Text: as §1, §2, §3, §4, §5, §6, §7, §8
Fungicidal Efficacy of the Mixture of BP-4+Other Fungicides (4 Day Residual) Against Leptosphaeria nodorum on Wheat

[5] = Table XIV (Example 14), 4 day residual, dose rate 0.4 ppm
[6] = Table XIV (Example 14), 4 day residual, dose rate 10 ppm
[7] = Puccinia recondita, 96 h, Table XV (Example 15), 4 day residual, dose rate 0.4 ppm, read-out: Observed Efficacy
[8] = Puccinia recondita, 96 h, Table XV (Example 15), 4 day residual, dose rate 2 ppm, read-out: Observed Efficacy
[9] = Table XVI (Example 16), 4 day residual, dose rate 2 ppm
[10] = Table XVI (Example 16), 4 day residual, dose rate 10 ppm
[11] = Table XI, compound alone, dose rate 0.4 ppm
[12] = Table XI, compound alone, dose rate 2 ppm
[13] = Table XI, compound alone, dose rate 10 ppm
[14] = Table XI, compound alone, dose rate 50 ppm
[15] = Table XIII (Example 13), 4 day residual, dose rate 0.4 ppm
[16] = Table XIII (Example 13), 4 day residual, dose rate 2 ppm
[17] = Table XIII (Example 13), 4 day residual, dose rate 10 ppm
[18] = Table XIII (Example 13), 4 day residual, dose rate 50 ppm
[19] = Puccinia recondita, 96 h, Table VII, compound alone, dose rate 16 ppm, read-out: Observed Efficacy
[20] = Puccinia recondita, 96 h, Table VII, compound alone, read-out: Observed Efficacy
[21] = Table XIV (Example 14), 4 day residual, dose rate 50 ppm
[22] = Table XVI (Example 16), 4 day residual, dose rate 50 ppm
[23] = Puccinia recondita, 96 h, read-out: Observed Efficacy
[24] = Table XIV (Example 14), 4 day residual, dose rate 2 ppm
[25] = Table XVI (Example 16), 4 day residual, dose rate 0.4 ppm
[26] = Puccinia recondita, 96 h, Table XV (Example 15), 4 day residual, dose rate 10 ppm, read-out: Observed Efficacy
[27] = Puccinia recondita, 96 h, Table XV (Example 15), 4 day residual, dose rate 50 ppm, read-out: Observed Efficacy

CC(C1CC1)C(O)(Cn1cncn1)c1ccc(Cl)cc1 (centres unmarked) [Cyproconazole]
pest or weed control at 0.4 ppm [1, 5]: 19% | pest or weed control at 10 ppm [1, 6]: 68% | pest or weed control at 0.4 ppm [2, 7]: 88% | pest or weed control at 2 ppm [2, 8]: 99% | pest or weed control at 2 ppm [3, 9]: 4% | pest or weed control at 10 ppm [3, 10]: 1%

Propiconazole
Observed Efficacy [1, 11]: 0% | Observed Efficacy [1, 12]: 19% | Observed Efficacy [1, 13]: 76% | Observed Efficacy [1, 14]: 96% | Observed Efficacy [3, 15]: 0 | Observed Efficacy [3, 16]: 0 | Observed Efficacy [3, 17]: 38 | Observed Efficacy [3, 18]: 74

S1SSSSSSS1 [Sulfur organic, Sulfur]
pest or weed control at 0.4 ppm [1, 11]: 0% | pest or weed control at 2 ppm [1, 12]: 0% | pest or weed control at 10 ppm [1, 13]: 7% | pest or weed control at 50 ppm [1, 14]: 0% | pest or weed control at 2 ppm [3, 16]: 0% | pest or weed control at 10 ppm [3, 17]: 0%

COc1ccc(C(=CC(=O)N2CCOCC2)c2ccc(Cl)cc2)cc1OC [Dimethomorph]
pest or weed control at 4 ppm ([1]; compound alone): 0% | pest or weed control at 16 ppm ([1]; compound alone): 0% | pest or weed control at 64 ppm ([1]; compound alone): 0% | pest or weed control at 256 ppm ([1]; compound alone): 18% | pest or weed control at 16 ppm [2, 19]: 0% | pest or weed control at 64 ppm [2, 20]: 0% | pest or weed control at 256 ppm [2, 20]: 0% | pest or weed control at 4 ppm ([4]; dose rate 4 ppm): 1% | pest or weed control at 16 ppm ([4]; dose rate 16 ppm): 6% | pest or weed control at 64 ppm [4]: 11% | pest or weed control at 256 ppm [4]: 14%

CCCCC(C#N)(Cn1cncn1)c1ccc(Cl)cc1 (centres unmarked) [Myclobutanil]
pest or weed control at 0.4 ppm [1, 11]: 36% | pest or weed control at 2 ppm [1, 12]: 52% | pest or weed control at 10 ppm [1, 13]: 73% | pest or weed control at 50 ppm [1, 14]: 96% | pest or weed control at 0.4 ppm ([2]; Puccinia recondita, 96 h, Table XII, compound alone, dose rate 0.4 ppm, read-out: Observed Efficacy): 13% | pest or weed control at 2 ppm ([2]; Puccinia recondita, 96 h, Table XII, compound alone, dose rate 2 ppm, read-out: Observed Efficacy): 52% | pest or weed control at 10 ppm ([2]; Puccinia recondita, 96 h, Table XII, compound alone, dose rate 10 ppm, read-out: Observed Efficacy): 72% | pest or weed control at 50 ppm ([2]; Puccinia recondita, 96 h, Table XII, compound alone, dose rate 50 ppm, read-out: Observed Efficacy): 99% | pest or weed control at 0.4 ppm [3, 15]: 0% | pest or weed control at 2 ppm [3, 16]: 21% | pest or weed control at 10 ppm [3, 17]: 40% | pest or weed control at 50 ppm [3, 18]: 82%

Flusilazole
Observed Efficacy [1, 21]: 38 | Observed Efficacy ([2]; Table XV (Example 15), 4 day residual, dose rate 50 ppm): 100 | Observed Efficacy [3, 22]: 48

CCCN(CCOc1c(Cl)cc(Cl)cc1Cl)C(=O)n1ccnc1 [Prochloraz]
pest or weed control at 0.4 ppm [1]: 0% | pest or weed control at 2 ppm [1]: 0% | pest or weed control at 10 ppm [1]: 1% | pest or weed control at 50 ppm [1]: 18% | pest or weed control at 0.4 ppm [2, 23]: 0% | pest or weed control at 2 ppm [2, 23]: 0% | pest or weed control at 16 ppm [2, 23]: 1% | pest or weed control at 50 ppm [2, 23]: 14% | pest or weed control at 0.4 ppm [3]: 8% | pest or weed control at 2 ppm [3]: 19% | pest or weed control at 10 ppm [3]: 48%

[Cl-].[Cu+2].[Cu+2].[OH-].[OH-].[OH-] [Copper oxychloride]
Observed Efficacy [3, 15]: 0 | Observed Efficacy [3, 16]: 0 | Observed Efficacy [3, 17]: 14 | Observed Efficacy [3, 18]: 14

Dinocap
Observed Efficacy [1, 5]: 0 | Observed Efficacy [1, 24]: 0 | Observed Efficacy ([2]; Table XV (Example 15), 4 day residual, dose rate 0.4 ppm): 4 | Observed Efficacy ([2]; Table XV (Example 15), 4 day residual, dose rate 2 ppm): 13 | Observed Efficacy ([2]; Table XV (Example 15), 4 day residual, dose rate 10 ppm): 23 | Observed Efficacy [3, 25]: 0 | Observed Efficacy [3, 9]: 0 | Observed Efficacy [3, 10]: 5

CON=C(Cc1cccnc1)c1ccc(Cl)cc1Cl [Pyrifenox]
pest or weed control at 0.4 ppm [1, 5]: 0% | pest or weed control at 2 ppm [1, 24]: 0% | pest or weed control at 10 ppm [1, 6]: 1% | pest or weed control at 50 ppm [1, 21]: 20% | pest or weed control at 0.4 ppm [2, 7]: 0% | pest or weed control at 2 ppm [2, 8]: 0% | pest or weed control at 10 ppm [2, 26]: 1% | pest or weed control at 50 ppm [2, 27]: 6% | pest or weed control at 0.4 ppm [3, 25]: 0% | pest or weed control at 2 ppm [3, 9]: 0% | pest or weed control at 50 ppm [3, 22]: 15%

CO/N=C(/C(=O)OC)c1ccccc1COc1ccccc1C [Kresoxim-methyl]
pest or weed control at 0.4 ppm [1, 11]: 2% | pest or weed control at 2 ppm [1, 12]: 14% | pest or weed control at 10 ppm [1, 13]: 88% | pest or weed control at 50 ppm [1, 14]: 100% | pest or weed control at 0.4 ppm [3, 15]: 0% | pest or weed control at 2 ppm [3, 16]: 21%

OC(c1ccc(Cl)cc1)(c1cncnc1)c1ccccc1Cl (centres unmarked) [Fenarimol]
pest or weed control at 0.4 ppm [1, 5]: 5% | pest or weed control at 2 ppm [1, 24]: 34% | pest or weed control at 10 ppm [1, 6]: 42% | pest or weed control at 50 ppm [1, 21]: 67% | pest or weed control at 0.4 ppm [2, 7]: 0% | pest or weed control at 2 ppm [2, 8]: 9% | pest or weed control at 10 ppm [2, 26]: 23% | pest or weed control at 50 ppm [2, 27]: 90% | pest or weed control at 2 ppm [3, 9]: 0% | pest or weed control at 10 ppm [3, 10]: 4%

CC(Cc1ccc(C(C)(C)C)cc1)CN1CCCCC1 (centres unmarked) [Fenpropidin]
pest or weed control at 4 ppm ([1]; compound alone): 0% | pest or weed control at 16 ppm ([1]; compound alone): 6% | pest or weed control at 64 ppm ([1]; compound alone): 21% | pest or weed control at 256 ppm ([1]; compound alone): 69% | pest or weed control at 4 ppm ([2]; Puccinia recondita, 96 h, Table VII, compound alone, dose rate 4 ppm, read-out: Observed Efficacy): 0% | pest or weed control at 16 ppm [2, 19]: 0% | pest or weed control at 64 ppm [2, 20]: 8% | pest or weed control at 256 ppm [2, 20]: 97% | pest or weed control at 64 ppm [4]: 0% | pest or weed control at 256 ppm [4]: 21%

CCCN(CC)CC1COC2(CCC(C(C)(C)C)CC2)O1 (centres unmarked) [Spiroxamine]
pest or weed control at 0.4 ppm [1, 5]: 0% | pest or weed control at 2 ppm [1, 24]: 0% | pest or weed control at 10 ppm [1, 6]: 2% | pest or weed control at 2 ppm [2, 8]: 0% | pest or weed control at 10 ppm [2, 26]: 4% | pest or weed control at 50 ppm [2, 27]: 17% | pest or weed control at 0.4 ppm [3, 25]: 0% | pest or weed control at 2 ppm [3, 9]: 3% | pest or weed control at 10 ppm [3, 10]: 5% | pest or weed control at 50 ppm [3, 22]: 16%
